Laboratory results taken from article PMC8861095, “Neurotoxicological profile of the hallucinogenic compound 25I-NBOMe” (Scientific Reports, 2022).

How the values were obtained:
DNA [1] = system: DNA; design: method as in PMID 33337517; conditions: 0.3 mg/kg; cited from earlier work
[2] = system: rat primary cortical cultures; design: method as in PMID 31078573; conditions: 30 μM; did not recover after 19 h of washout period; cited from earlier work
SH-SY5Y cells = conditions: cited from earlier work
SN4741 cells = conditions: 25–400 µM; cited from earlier work
PC12 cells = conditions: 25–400 µM; cited from earlier work
DNA [3] = experiment: Alkaline comet assay on nuclei from frontal cortex and hippocampus; assay type: in vivo, rat; conditions: for Damaging effect on DNA compared with 25I-NBOMe: frontal cortex and hippocampus, LSD 0.05 mg/kg, MDMA 5 mg/kg, 25I-NBOMe 0.3 mg/kg; for DNA damage (tail moment): vs control; for Tail moment after four injections compared with the acute one: 5 mg/kg ip × 4 vs acute
Experimental: Animals received single or multiple (once per day for seven days) subcutaneous injections of 25I-NBOMe dissolved in 0.9% NaCl at a dose of 0.3 mg/kg/2 ml. The control group was treated with 0.9% NaCl solution in the same way. All procedures were performed 72 h after the last injection. The time point of 72 h was chosen due to the possible generation of neurotoxicity via oxidative stress caused by reactive oxygen species (ROS). Exceptionally, for initial 25I-NBOMe brain distribution studies, rats received the drug in the dose of 1 and 10 mg/kg and were sacrificed 15 min after the drug administration. The rat blood plasma and brain tissues were collected immediately after rats’ decapitation. LSD (0.05 mg/kg, ip) was given daily for 7 days in a volume of 1 ml/kg, while MDMA 5 mg/kg, ip was injected in a volume of 2 ml/kg every second day (overall 4 injections).
The alkaline comet assay was performed with the use of CometAssay® Reagent Kit for Single Cell Gel Electrophoresis Assay. At 72 h after the acute and chronic treatment with 25I-NBOMe (0.3 mg/kg, sc × 7 days), LSD (0.05 mg/kg, ip × 7 days) or MDMA (5 mg/kg, ip × 4 doses every second day) animals were sacrificed by decapitation and the frontal cortex (that consist of the sum of FC and mPFC) and hippocampus were dissected. After homogenization and several purification and centrifugation stages (as described previously in[17]), the nuclear suspension was obtained using a sucrose gradient (2.8 M/2.6 M, bottom to top). The nuclear fraction was mixed with low melting point agarose and transferred immediately onto CometSlides™. The following steps, including membrane lysis, DNA unwinding, alkaline electrophoresis, and staining (SYBR® Gold), were carried out according to Trevigen CometAssay® protocol. Stained sections were acquired and analyzed under a fluorescence microscope (Nikon Eclipse50i, Japan) equipped with a camera and NIS Elements software. The data was analyzed using OpenComet software v.1.3 (cometbio.org), a plugin of ImageJ program v.1.47 (NIH, Bethesda, MD, USA). DNA damage was presented as a tail moment. Tail moment incorporates a measure of both the smallest detectable size of migrating DNA (reflected by the comet tail length) and the number of damaged pieces (represented by the intensity of DNA in the tail).

[4] = design: method as in PMID 20956470; conditions: cited from earlier work

In the case of `COc1cc(CCNCc2ccccc2OC)c(OC)cc1Br` [25B-NBOMe], the “DNA damage in the rat frontal cortex” value (DNA [1]) is listed as “potent in damaging DNA” and the Neuronal activity [2] is listed as “decreased neuronal activity”.
In the case of `COc1cc(CCNCc2ccccc2OC)c(OC)cc1Cl` [25C-NBOMe], the Cell viability (SH-SY5Y cells; 25–400 µM) is given as “potent reduction”, the “Potency to reduce SH-SY5Y cells in respect to methamphetamine” value (SH-SY5Y cells) is given as 50 times and the Cell viability (SN4741 cells) is given as “potent reduction”. For the same compound, the Cell viability (PC12 cells) was “potent reduction”.
In the case of `CCN(CC)C(=O)[C@@H]1C=C2c3cccc4[nH]cc(c34)C[C@H]2N(C)C1` [LSD, lysergic acid diethylamide], the “Damaging effect on DNA compared with 25I-NBOMe” value (DNA [3]) is reported as “weaker in its damaging effect on DNA than 25I-NBOMe”, the “DNA damage after chronic administration compared with a single dose” value (DNA [3]; frontal cortex, 0.05 mg/kg ip × 7 vs single, 72 h) is reported as “significantly greater after chronic administration” and the “DNA damage (tail moment)” value (DNA [3]; frontal cortex, single and 7-day treatment 0.05 mg/kg ip, 72 h) is reported as “caused DNA damage”. For the same compound, the “DNA damage after repeated injections compared with a single dose” value (DNA [3]; hippocampus, 0.05 mg/kg ip × 7 vs single, 72 h) was “higher DNA damage than the single dose” and the “DNA damage (tail moment)” value (DNA [3]; hippocampus, acute and chronic (× 7) 0.05 mg/kg ip, 72 h) was “significant increase in the tail moment value”.
In the case of `CNC(C)Cc1ccc2c(c1)OCO2` (centres unmarked) [MDMA, 3,4-methylenedioxymethamphetamine], the “Damaging effect on DNA compared with 25I-NBOMe” value (DNA [3]) is reported as “nearly equal to 25I-NBOMe in oxidative damage of DNA”, the “Tail moment after four injections compared with the acute one” value (DNA [3]; frontal cortex, 72 h) is reported as “stronger increase in the tail moment value” and the “DNA damage (tail moment)” value (DNA [3]; frontal cortex, acute and chronic (4 injections every second day) 5 mg/kg ip, 72 h) is reported as “exhibited DNA damaging properties”. For the same compound, the “Tail moment after four injections compared with the acute one” value (DNA [3]; hippocampus, 72 h) was “stronger increase in the tail moment value” and the “DNA damage (tail moment)” value (DNA [3]; hippocampus, acute and chronic (4 injections every second day) 5 mg/kg ip, 72 h) was “exhibited DNA damaging properties”.
For `COc1cc(CCNCc2ccccc2OC)c(OC)cc1I` [^11C-CIMBI-5], the “Location in brain shortly after intravenous injection” value [4] is listed as “located in the cortex and the lower range in the cerebellum”.
